Assay results taken from publication PMC8048639 (2021).
Values belong to the compound of their own block, whether it stands above or below them.

Key:
[1] = system: poly(rG) (RNA, polymer) G; assay: fluorimetric titration, Scatchard fit; conditions: Na+ (sodium cacodylate buffer, I=0.05 M), pH 7.0, n fixed, per base
[2] = system: poly(rA) (RNA, polymer) A; assay: fluorimetric titration, Scatchard fit; conditions: Na+ (sodium cacodylate buffer, I=0.05 M), pH 7.0, n fixed, per base
[3] = system: poly(dAdT)2 (DNA, polymer) AT; assay: fluorimetric titration, Scatchard fit; conditions: Na+ (sodium cacodylate buffer, I=0.05 M), pH 7.0, n fixed, per base
[4] = system: poly(dT) (DNA, polymer) T; assay: fluorimetric titration, Scatchard fit; conditions: Na+ (sodium cacodylate buffer, I=0.05 M), pH 7.0, n fixed, per base
[5] = system: poly(rA)-poly(rU) (RNA, polymer) A/U; assay: fluorimetric titration, Scatchard fit; conditions: Na+ (sodium cacodylate buffer, I=0.05 M), pH 7.0, per base
[6] = system: poly(rA)-poly(rU) (RNA, polymer) A/U; assay: UV thermal melting at 260 nm; conditions: Na+ (sodium cacodylate buffer, I=0.05 M); pH 7.0; r=[compound]/[polynucleotide]=0.1; per base
[7] = system: poly(dGdC)2 (DNA, polymer) GC; assay: fluorimetric titration, Scatchard fit; conditions: Na+ (sodium cacodylate buffer, I=0.05 M), pH 7.0, n fixed, per base
[8] = system: poly(rU) (RNA, polymer) U; assay: fluorimetric titration, Scatchard fit; conditions: Na+ (sodium cacodylate buffer, I=0.05 M), pH 7.0, n fixed, per base
[9] = system: poly(dAdT)2 (DNA, polymer) AT; assay: UV thermal melting at 260 nm; conditions: Na+ (sodium cacodylate buffer, I=0.05 M); pH 7.0; r=[compound]/[polynucleotide]=0.1; per base
[10] = system: poly(rC) (RNA, polymer) C; assay: fluorimetric titration, Scatchard fit; conditions: Na+ (sodium cacodylate buffer, I=0.05 M), pH 7.0, n fixed, per base
[11] = system: poly(dA) (DNA, polymer) A; assay: fluorimetric titration, Scatchard fit; conditions: Na+ (sodium cacodylate buffer, I=0.05 M); pH 7.0; compound 5×10^-8 M; n fixed; per base
[12] = compound 5×10^-8 M, aggregation at excess dye
[13] = compound 5×10^-8 M, apparent, lowered by competing aggregation

log K S [1]: 8.7
log K S [2]: 7.8
log K S ([3]; compound 1×10^-8 M, aggregation at excess dye): 7.7
log K S [4]: 7.4
log K S ([5]; compound 1×10^-8 M, limit only): > 9
ΔT m [6]: 8 ± 0.5 °C
log K S ([7]; compound 1×10^-8 M): 7.9
log K S [8]: 8.8
ΔT m [9]: 6 ± 0.5 °C
Structure (SMILES): Cc1cc(C#Cc2c3ccccc3c(C#Cc3cc(C)c(B(c4c(C)cc([N+](C)(C)C)cc4C)c4c(C)cc([N+](C)(C)C)cc4C)c(C)c3)c3ccccc23)cc(C)c1B(c1c(C)cc([N+](C)(C)C)cc1C)c1c(C)cc([N+](C)(C)C)cc1C

log K S [1, 12]: 7.1
log K S [10, 12]: 7.4
log K S [3, 13]: 5.1
log K S ([4]; compound 5×10^-8 M): 7.6
log K S ([5]; compound 5×10^-8 M, apparent, lowered by competing aggregation, n fixed): 6.0
ΔT m [6]: 7 ± 0.5 °C
log K S [11]: 7.6
log K S [7, 13]: 6.6
log K S ([8]; compound 5×10^-8 M): 7.0
ΔT m [9]: 3 ± 0.5 °C
Structure (SMILES): Cc1cc(C#Cc2ccc(-c3ccc(C#Cc4cc(C)c(B(c5c(C)cc([N+](C)(C)C)cc5C)c5c(C)cc([N+](C)(C)C)cc5C)c(C)c4)s3)s2)cc(C)c1B(c1c(C)cc([N+](C)(C)C)cc1C)c1c(C)cc([N+](C)(C)C)cc1C

log K S [1]: 8.7
log K S [2]: 8.4
log K S [10]: 7.1
log K S ([3]; compound 5×10^-9 M): 7.8
log K S [4]: 8.5
log K S ([5]; n fixed): 8.6
ΔT m [6]: 9 ± 0.5 °C
log K S [7]: 8.4
log K S [8]: 7.4
Structure (SMILES): Cc1cc(C#Cc2ccc(C#Cc3cc(C)c(B(c4c(C)cc([N+](C)(C)C)cc4C)c4c(C)cc([N+](C)(C)C)cc4C)c(C)c3)cc2)cc(C)c1B(c1c(C)cc([N+](C)(C)C)cc1C)c1c(C)cc([N+](C)(C)C)cc1C

log K S ([1]; compound 5×10^-8 M): 7.3
log K S ([2]; compound 5×10^-8 M): 7.1
log K S ([10]; compound 5×10^-8 M): 7.2
log K S ([3]; compound 5×10^-8 M): 7.4
log K S ([5]; compound 5×10^-8 M, n fixed): 7.9
ΔT m [6]: 0 ± 0.5 °C
log K S ([7]; compound 5×10^-8 M): 7.8
log K S ([8]; compound 5×10^-8 M): 7.1
Structure (SMILES): Cc1cc([N+](C)(C)C)cc(C)c1B(c1c(C)cc([N+](C)(C)C)cc1C)c1c2ccccc2c(B(c2c(C)cc([N+](C)(C)C)cc2C)c2c(C)cc([N+](C)(C)C)cc2C)c2ccccc12
